What was measured:
CYP3A4 = CYP3A4 (Homo sapiens, UniProt P08684); assay: in vitro; conditions: microsomes, pH 7.4
Procedure: Appropriate amounts of such test compound, substrate, target to be measured, and positive control were weighed. They were dissolved in DMSO, and were then diluted with acetonitrile, as appropriate.
180 μl of a reaction solution prepared by mixing the following (1) to (5) had previously been warmed at 37° C. for 10 minutes:
(1) Potassium phosphate buffer (pH 7.4; final concentration: 50 mM)
(3) Midazolam (final concentration: 2.5 μM)
(5) Human hepatic microsome (final concentration: 0.05 mg-P/ml)
20 μl of the NADPH Regeneration System (solution A/solution B/purified water=5/1/4) was added to this reaction solution, and the reaction was initiated. The mixture was incubated for 10 minutes. Thereafter, 50 μl of the reaction solution was sampled, and it was then added to 200 μl of acetonitrile, followed by the termination of the reaction. Further, 50 μl of an acetonitrile solution containing an internal standard substance was added to the reaction solution.
In order to remove proteins from this sample, the reaction solution was transferred to a 96-Well Collection Plate (Waters) using Captiva (registered trademark) (GL Sciences). This sample solution was defined as a sample used for the assay of LC-MS/MS.
Samples of 1′-Hydroxymidazolam having known concentrations (final concentrations: 0 to 5 μM; total 5 points) were prepared, separately. A calibration curve used for assay was prepared, and the concentration of 1′-Hydroxymidazolam in the sample was assayed. This reaction was carried out in a duplicated manner.
The amount of 1′-Hydroxymidazolam generated in the negative control was defined as 100%, and the ratio of the amount of this compound generated by addition of each compound was then calculated. Thus, the inhibition value of CYP3A4 was obtained.

[1] = system: human breast cancer cell line SK-BR-3; assay: Cell growth inhibition assay (MTT), SK-BR-3; assay type: cell-based; conditions: SK-BR-3, 72 hours
Procedure: (§1) A cell growth inhibition assay was performed using two types of cells (human breast cancer cell line SK-BR-3 and human lung cancer cell line NCI-H460).
(§2) Cells of each type were suspended in a medium and seeded into a 96-well multi-well plate at 2000 cells/150 μL/well in the case of SK-BR-3 and at 500 cells/150 μL/well in the case of NCI-H460. The test compound was dissolved in DMSO, and this was diluted with medium to prepare a sample solution (DMSO concentration: 0.5% or less). On the day following the seeding, 50 μL of DMSO-containing medium to which the test compound was not added (hereinafter called DMSO diluted solution; DMSO concentration: 0.5% or less) or 50 μL of the sample solution was further added to the cells. An MTT assay was performed immediately after and 72 hours after adding the sample solution or the DMSO diluted solution to the cells. The MTT assay was performed as follows.
(§3) 5 mg/mL of an MTT (3-(4,5-dimethylthiazol-2-yl)-2,5-diphenyltetrazolium bromide) solution was added at 20 μL per well. Thereafter, the plate was incubated at 37° C. in 5% CO2 for four hours. The plate was centrifuged at 1200 rpm for five minutes, and then the culture supernatant was removed by suction using a dispenser. DMSO was added at 150 μL per well, and the generated formazan was dissolved. The plate was stirred using a plate mixer to uniformly color the respective wells. The absorbance of each well was measured using a plate reader at an OD of 540 nm with a reference of 660 nm.
(§4) T/C (%) for each concentration was determined by the following calculation formula and a dose-response curve was drawn to calculate the 50% growth inhibitory concentration (GI50 value), based on the assumption that the OD value measured immediately after adding the sample solution was S, the OD value measured 72 hours after adding the sample solution was T, and the OD value measured 72 hours after adding the DMSO diluted solution was C. T/C (%)=(T−S)/(C−S)×100 The results are shown below.

[2] = system: human lung cancer cell line NCI-H460; assay: Cell growth inhibition assay (MTT), NCI-H460; assay type: cell-based; conditions: NCI-H460, 72 hours
Procedure: as §1, §2, §3, §4

[3] = molecular target: T1, recombinant yeast Hsp90 protein (rHsp90) (Saccharomyces cerevisiae, UniProt P02829); assay: Hsp90 ATPase assay; assay type: biochemical; conditions: at a concentration of 2 μM; 100 μM ATP, 37° C., two hours; read-out: ATPase inhibitory activity
T1 construct: made in house; host or cells: Escherichia coli
Procedure: An Hsp90 ATPase assay was performed using a recombinant yeast Hsp90 protein (hereinafter called rHsp90). Yeast Hsp90 DNA was cloned from a yeast genomic DNA library according to a conventional method. The cloned yeast Hsp90 DNA was incorporated into a plasmid for expression in Escherichia coli, and the plasmid was expressed in Escherichia coli to obtain rHsp90.
The test compound was dissolved in DMSO to 10 mM. The dissolved solution was diluted with DMSO to two concentrations, 1 mM and 0.2 mM. Each diluted solution was further 10-fold diluted with an assay buffer (100 mM Tris, pH 7.4, 20 mM KCl, 6 mM MgCl2) (concentration of each test compound solution: 100 μM and 20 μM; DMSO concentration: 10%).
rHsp90 was dissolved in a TE buffer (20 mM Tris, pH 7.4, 1 mM EDTA) to a concentration of 2.531 mg/mL. The solution was diluted with an assay buffer to 125 μg/mL and dispensed to a 96-well assay plate at 40 μL per well (final concentration: 100 μg/mL).
The test compound solution was dispensed at 5 μL per well, and then the solutions in the respective wells were mixed using a plate mixer. 100 mM ATP (Sigma, Catalog No. A-7699) was diluted with an assay buffer to 1 mM and dispensed at 5 μL per well (final concentration: 100 μM). The solutions in the respective wells were mixed using a plate mixer, and then the assay plate was allowed to stand in an incubator set at 37° C. for two hours.
BIOMOL GREEN Reagent (BIOMOL, Catalog No. AK-111) was dispensed at 100 μL per well, and the reaction was terminated. The solutions in the respective wells were mixed using a plate mixer, and then 34% sodium citrate was dispensed at 10 μL per well. The solutions in the respective wells were mixed using a plate mixer, and then the assay plate was left to stand at room temperature for 30 minutes. The absorbance at 650 nm of each well was measured using SpectramaxPLUS (Molecular Devices).
The ratio of the absorbance of the test compound-added group to the absorbance of the test compound-free group (T/C value) was determined by the following calculation formula, based on the assumption that the absorbance of the well to which the test compound and rHsp90 were added was A, the absorbance of the well to which only rHsp90 was added was B, and the absorbance of the well to which neither the test compound nor rHsp90 was added was C. The calculation was carried out using Softmax Pro 4.6 (Molecular Devices). Furthermore, an inhibition rate (%) was calculated using the following calculation formula: T/C=(A−C)/(B−C)

Sequence of CYP3A4 (P08684 whole entry): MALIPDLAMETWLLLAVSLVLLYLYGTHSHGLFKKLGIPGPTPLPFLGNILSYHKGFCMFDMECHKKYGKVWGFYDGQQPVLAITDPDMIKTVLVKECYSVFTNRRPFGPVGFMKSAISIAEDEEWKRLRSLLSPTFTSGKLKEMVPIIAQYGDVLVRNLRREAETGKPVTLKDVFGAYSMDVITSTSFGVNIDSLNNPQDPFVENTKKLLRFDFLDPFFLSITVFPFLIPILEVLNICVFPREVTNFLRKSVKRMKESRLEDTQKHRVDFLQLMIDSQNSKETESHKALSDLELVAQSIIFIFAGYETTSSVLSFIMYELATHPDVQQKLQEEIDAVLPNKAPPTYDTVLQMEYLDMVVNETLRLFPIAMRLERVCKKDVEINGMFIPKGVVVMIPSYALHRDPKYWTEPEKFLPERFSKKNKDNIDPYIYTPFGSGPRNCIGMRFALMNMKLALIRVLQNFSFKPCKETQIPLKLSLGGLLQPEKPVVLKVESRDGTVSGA
T1 sequence (P02829 whole entry): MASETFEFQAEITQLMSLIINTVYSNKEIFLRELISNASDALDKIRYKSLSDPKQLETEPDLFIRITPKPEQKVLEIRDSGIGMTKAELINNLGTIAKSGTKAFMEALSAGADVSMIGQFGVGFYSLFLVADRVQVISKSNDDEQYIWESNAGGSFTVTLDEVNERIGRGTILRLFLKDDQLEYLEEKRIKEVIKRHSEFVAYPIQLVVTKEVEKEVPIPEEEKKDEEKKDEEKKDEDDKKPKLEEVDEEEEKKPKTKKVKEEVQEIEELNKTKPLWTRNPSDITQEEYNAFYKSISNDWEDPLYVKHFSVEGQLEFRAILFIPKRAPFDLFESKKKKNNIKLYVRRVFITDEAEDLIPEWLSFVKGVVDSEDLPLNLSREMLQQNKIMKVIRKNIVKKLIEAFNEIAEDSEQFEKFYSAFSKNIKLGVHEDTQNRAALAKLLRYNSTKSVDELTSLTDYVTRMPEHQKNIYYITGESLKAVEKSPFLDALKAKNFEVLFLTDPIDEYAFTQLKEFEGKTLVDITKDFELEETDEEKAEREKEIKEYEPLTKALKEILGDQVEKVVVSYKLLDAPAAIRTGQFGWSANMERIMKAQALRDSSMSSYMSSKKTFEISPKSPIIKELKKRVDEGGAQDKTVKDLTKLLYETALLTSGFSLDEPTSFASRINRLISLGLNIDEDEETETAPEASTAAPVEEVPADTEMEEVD

| SMILES | inhibition at 10 min, 10 μM (CYP3A4) | GI50 [1] | GI50 [2] | inhibition at 2 µM [3] |
| --- | --- | --- | --- | --- |
| CNC(=O)CC1=Cc2nn(Cc3ncc(C)c(OC)c3Cl)c3nc(N)nc(c23)SC1 [Compound 1, 2-{4-Amino-2-[(3-chloro-4-methoxy-5-methylpyridin-2-yl)methyl]-2,7-dihydro-6-thia-1,2,3,5-tetraazabenzo[cd]azulen-8-yl}-N-methylacetamide] | 15% | 13 nM | 26 nM | ≥ 50% |
| CNC(=O)CC1=Cc2nn(Cc3ncc(F)c(OC)c3C)c3nc(N)nc(c23)SC1 [Compound 2, 2-{4-Amino-2-[(5-fluoro-4-methoxy-3-methylpyridin-2-yl)methyl]-2,7-dihydro-6-thia-1,2,3,5-tetraazabenzo-[cd]azulen-8-yl}-N-methylacetamide] | 58% | 39 nM | 90 nM | ≥ 50% |
| CNC(=O)CC1=Cc2nn(Cc3ncc(C)c(OC)c3Br)c3nc(N)nc(c23)SC1 [Compound 3, 2-{4-Amino-2-[(3-bromo-4-methoxy-5-methylpyridin-2-yl)methyl]-2,7-dihydro-6-thia-1,2,3,5-tetraazabenzo[cd]azulen-8-yl}-N-methylacetamide] | 5% | 14 nM | 30 nM | ≥ 50% |
| COc1c(C)cnc(Cn2nc3c4c(nc(N)nc42)SCC(CC(N)=O)=C3)c1Br [Compound 4, 2-{4-Amino-2-[(3-bromo-4-methoxy-5-methylpyridin-2-yl)methyl]-2,7-dihydro-6-thia-1,2,3,5-tetraazabenzo[cd]azulen-8-yl}acetamide mesilate] | 43% | 11 nM | 22 nM | ≥ 50% |
| COc1c(C)cnc(Cn2nc3c4c(nc(N)nc42)SCC(CC(=O)NCCF)=C3)c1Cl [Compound 5, 2-{4-Amino-2-[(3-chloro-4-methoxy-5-methylpyridin-2-yl)methyl]-2,7-dihydro-6-thia-1,2,3,5-tetraazabenzo[cd]azulen-8-yl}-N-(2-fluoroethyl)acetamide] | 66% | 16 nM | 36 nM | ≥ 50% |
| COc1ccnc(Cn2nc3c4c(nc(N)nc42)SCC(C(=O)NCC(F)F)=C3)c1Cl [Compound 6, 4-Amino-2-[(3-chloro-4-methoxypyridin-2-yl)methyl]-N-(2,2-difluoroethyl)-2,7-dihydro-6-thia-1,2,3,5-tetraazabenzo[cd]azulen-8-carboxamide] | -18% | 45 nM | 110 nM | ≥ 50% |
